Laboratory results published in patent publication US4244952A, “Imidazo[2',1':2,3]-thiazolo[5,4-c]pyridines and composition thereof for treating immune diseases” (Yoshitomi Pharmaceutical Industries, Ltd., priority 1978, dated 1981).

Columns and labels:
[1] = tested on: rosette forming cells (RFC) in the spleen and thymus; assay: Activity for potentiating immune response in dd-mice (RFC number after SRBC sensitization in CY-treated mice); type: in vivo, male dd-strain mice
Procedure: (I) Activity for potentiating immune response in dd-mice
As test animals, male dd-strain mice (8 week old) were used by dividing them into groups of 6 members. Each mouse was orally administered once a day with cyclophosphamide (CY) at a dose of 20 mg/kg 1 and 0 day before the sensitization. The sensitization (day 0) was made by the intravenous injection of the antigen; 1×10^8 sheep red blood cells (SRBC). Each mouse was orally administered with test compounds (day 0-4). Five days after the sensitization, the number of rosette forming cells (RFC) in the spleen and thymus was measured in a usual manner.

Acute toxicity = details: mouse, in vivo, male dd-strain mice
Procedure: Acute toxicity of the test compound was determined using male dd-strain mice (8 week old) as test animals. The test compound was administered orally or intraperitoneally.

[2] = tested on: rosette forming cells (RFC) in the spleen and thymus; assay: Activity for suppressing immune response in BALB/c mice (RFC number after SRBC sensitization); type: in vivo, female BALB/c-strain mice; details: 30 mg/kg p.o.; for RFC/organ Spleen: day 0 and 1; for RFC/organ Thymus: day 0 and 1, ** P < 0.01 vs. control
Procedure: (II) Activity for suppressing immune response in BALB/c mice
As test animals, female BALB/c-strain mice (6 week old) were used by dividing them into groups of 6 members.
The sensitization (day 0) was made by the intraperitoneal injection the antigen; 5×10^8 sheep red blood cells (SRBC). Each mouse was orally administered with test compounds at day 0 and 1. Four days after the sensitization, the number of rosette forming cells (RFC) in the spleen and thymus was measured in a usual manner.

[3] = CY alone, 20 mg/kg p.o. once a day, 1 and 0 day before sensitization, dd-mice
[4] = CY (20 mg/kg) + test compound 1 mg/kg p.o., day 0-4, * P < 0.05 vs. CY treatment
[5] = CY (20 mg/kg) + test compound 1 mg/kg p.o., day 0-4, ** P < 0.01 vs. CY treatment
[6] = CY (20 mg/kg) + test compound 10 mg/kg p.o., day 0-4
[7] = CY (20 mg/kg) + test compound 10 mg/kg p.o., day 0-4, * P < 0.05 vs. CY treatment

Compound | RFC/organ Spleen [1, 3] | RFC/organ Thymus [1, 3] | number of RFC per spleen and thymus ([1]; group treated with CY alone) | LD50 (Acute toxicity; ip) [mg/kg] | LD50 (Acute toxicity; po) [mg/kg] | RFC/organ Spleen [2] | RFC/organ Thymus [2] | RFC/organ Thymus [1, 4] | RFC/organ Spleen [1, 5] | RFC/organ Spleen [1, 6] | RFC/organ Thymus [1, 7]
O=P1(N(CCCl)CCCl)NCCCO1 (stereo not shown) [CY, cyclophosphamide, reference compound] | 101 × 10^4 | 0.44 × 10^4 | reduced significantly | – | – | – | – | – | – | – | –
CCOC(=O)N1CCc2c(sc3nc(-c4ccc([N+](=O)[O-])cc4)cn23)C1 [Compound A, 7-ethoxycarbonyl-2-(4-nitrophenyl)-5,6,7,8-tetrahydroimidazo[2',1':2,3]thiazolo[5,4-c]pyridine] | – | – | – | 600 | 1000 | 174 × 10^4 | 0.00 × 10^4 | 3.33 × 10^4 | 169 × 10^4 | 220 × 10^4 | 3.11 × 10^4
O=[N+]([O-])c1ccc(CN2CCc3c(sc4nccn34)C2)cc1 [Compound B, 7-(4-nitrobenzyl)-5,6,7,8-tetrahydroimidazo[2',1':2,3]thiazolo-[5,4-c]pyridine] | – | – | – | 600 to 1000 | 600 | 104 × 10^4 | 0.14 × 10^4 | 2.00 × 10^4 | 291 × 10^4 | 135 × 10^4 | 1.56 × 10^4
